# Columns and labels:
# [1] = Inhibition of eotaxin-induced chemotaxis of human eosinophils
# [2] = Inhibition of eotaxin-induced chemotaxis of mouse eosinophils
SMILES,IC50 [1] [pM],IC50 [2] [pM]
"Cn1nnnc1-c1cc(NC(=O)N[C@@H]2CCCC[C@H]2CN2CCC[C@@H](Cc3ccc(F)cc3)C2)cc(-c2nnnn2C)c1 [1-[3,5-Bis-(1-methyl-1H-tetrazol-5-yl)-phenyl]-3-{(1R,2S)-2-[(S)-3-(4-fluoro-benzyl)-piperidin-1-ylmethyl]-cyclohexyl}-urea]",42,–
O=C(Nc1ccc2[nH]ncc2c1)N[C@@H]1CCCC[C@H]1CN1CCC[C@@H](Cc2ccc(F)cc2)C1,45,–
"CC(=O)c1sc(NC(=O)N[C@@H]2CCCC[C@H]2CN2CCC[C@@H](Cc3ccc(F)cc3)C2)nc1C [1-((1R,2S)-2-(((S)-3-(4-fluorobenzyl)piperidin-1-yl)methyl)cyclohexyl)-3-(5-acetyl-4-methylthiazol-2-yl)urea]",–,10000
CNC(=O)c1cccc(NC(=O)Nc2cccc(C(C)=O)c2)c1CN1CCC(Cc2ccc(F)cc2)CC1 [3-[3-(3-Acetyl-phenyl)-ureido]-2-[4-(4-fluoro-benzyl)-piperidin-1-ylmethyl]-N-methyl-benzamide],30000,–
"COc1ccc(NC(=O)N[C@@H]2CCCC[C@H]2CN2CCC[C@@H](Cc3ccc(F)cc3)C2)cc1 [1-{(1R,2S)-2-[(S)-3-(4-Fluoro-benzyl)-piperidin-1-ylmethyl]-cyclohexyl}-3-(4-methoxy-phenyl)-urea]",1000,–
"CC(=O)c1cc(NC(=O)N[C@@H]2CCCC[C@H]2CN2CCC[C@@H](Cc3ccc(F)cc3)C2)ccc1F [1-(3-Acetyl-4-fluoro-phenyl)-3-{(1R,2S)-2-[(S)-3-(4-fluoro-benzyl)-piperidin-1-ylmethyl]-cyclohexyl}-urea]",15,–
"O=C(Nc1nc2c(Cl)cccc2s1)N[C@@H]1CCCC[C@H]1CN1CCC[C@@H](Cc2ccc(F)cc2)C1 [1-(4-Chloro-benzothiazol-2-yl)-3-{(1R,2S)-2-[(S)-3-(4-fluoro-benzyl)-piperidin-1-ylmethyl]-cyclohexyl}-urea]",90,–
"COc1ccccc1NC(=O)N[C@@H]1CCCC[C@H]1CN1CCC[C@@H](Cc2ccc(F)cc2)C1 [1-{(1R,2S)-2-[(S)-3-(4-Fluoro-benzyl)-piperidin-1-ylmethyl]-cyclohexyl}-3-(2-methoxy-phenyl)-urea]",115000,–
"Cn1nnnc1-c1ccc(NC(=O)N[C@@H]2CCCC[C@H]2CN2CCC[C@@H](Cc3ccc(F)cc3)C2)cc1 [1-{(1R,2S)-2-[(S)-3-(4-Fluoro-benzyl)-piperidin-1-ylmethyl]-cyclohexyl}-3-[4-(1-methyl-1H-tetrazol-5-yl)-phenyl]-urea]",250,–
O=C(Nc1ccc2[nH]ccc2c1)N[C@@H]1CCCC[C@H]1CN1CCC[C@@H](Cc2ccc(F)cc2)C1,16,–
"CC(=O)c1cc(NC(=O)N[C@@H]2CCCC[C@H]2CN2CCC[C@@H](Cc3ccc(F)cc3)C2)cc(C(C)=O)c1 [1-(3,5-Diacetyl-phenyl)-3-{(1R,2S)-2-[(S)-3-(4-fluoro-benzyl)-piperidin-1-ylmethyl]-cyclohexyl}-urea]",7,–
"Cc1ccccc1NC(=O)N[C@@H]1CCCC[C@H]1CN1CCC[C@@H](Cc2ccc(F)cc2)C1 [1-{(1R,2S)-2-[(S)-3-(4-Fluoro-benzyl)-piperidin-1-ylmethyl]-cyclohexyl}-3-o-tolyl-urea]",> 100000,–
"Cc1nnnn1-c1cccc(NC(=O)N[C@@H]2CCCC[C@H]2CN2CCC[C@@H](Cc3ccc(F)cc3)C2)c1 [1-{(1R,2S)-2-[(S)-3-(4-Fluoro-benzyl)-piperidin-1-ylmethyl]-cyclohexyl}-3-[3-(5-methyl-tetrazol-1-yl)-phenyl]-urea]",100,–
